Measured values published in patent US20190315823A1, “SMALL CATIONIC ANTI-BIOFILM AND IDR PEPTIDES” (priority 2013, published 2019).
Like-named read-outs stand apart in the source and are kept apart here. Marks after values point to notes of the source that are not given here. Peptide text beside a SMILES is read from it.

Columns and labels:
Assay type in all cases: cell-based
P. aeruginosa biofilm = test system: P. aeruginosa biofilm
Method: (§1) Methods of assessment of anti-biofilm activity—Biofilm formation was initially analyzed using a static abiotic solid surface assay as described elsewhere (de la Fuente-Nunez et al., 2012). […] Planktonic cells were removed, biofilm cells adhering to the side of the tubes were stained with crystal violet, and absorbance at 595 nm was measured using a microtiter plate reader (Bio-Tek Instruments Inc., United States). Some peptides were screened against two Gram negative organisms, P. aeruginosa and K. pneumoniae using a Bioflux apparatus (AutoMate Scientific, Berkeley, Calif.; http://www.autom8.com/bioflux_biofilm.html), which allows for the high-throughput, real-time analysis of biofilms.

[1] = test system: LPS-stimulated human peripheral blood mononuclear cells (IL1-β); conditions: cells stimulated with 10 ng/ml LPS
[2] = test system: human peripheral blood mononuclear cells (MCP-1); assay: SPOT-synthesized derivative screen: production of chemokine MCP-1; conditions: No LPS
How it was run: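 MCP-1 was quantified by capture ELISA in cleared culture supernatants of treated human peripheral blood mononuclear cells. Cells came from heparinized volunteer blood via Ficoll gradient and were seeded at 0.75 to 1×10^6 cells/ml (37 °C, 5% CO2).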

S. aureus biofilm = conditions: concentration that reduced biofilm growth by 50%
Method: as §1

[3] = Table 12, LPS alone 1313 (HH2 derivatives), 1927 (1018 derivatives), 2455 (1002 and hybrid peptides) pg/ml
[4] = Table 12A, 1002-2013 compared to LPS control of 889 pg/ml
[5] = Table 12A, LPS alone 984 pg/ml, starred values (1002-2013) determined separately, LPS alone 889 pg/ml
[6] = Table 12, human PBMC, peptide at ~18-24 μM
[7] = Table 12, human PBMC, peptide at ~18-24 μM, background subtracted 139 (HH2 derivatives), 170 (1018 derivatives), 242 (1002 and hybrid peptides) pg/ml
[8] = Table 12A, background subtracted (21.3 pg/ml)
[9] = concentration that reduced biofilm growth by 50%

SMILES | MBIC50 P. aeruginosa (P. aeruginosa biofilm; biofilm) [µg/mL] | Fold change in IL1β relative to no peptide LPS stimulated cells ([1]; Table 12) | IL1β Production [1, 3] [pg/mL] | Fold change in IL1β relative to no peptide LPS stimulated cells [1, 4] | IL1β Production (pg/ml) [1, 5] | Fold increase in MCP1 cf. untreated cells [2, 6] | MCP1 [2, 7] [pg/mL] | Fold increase in MCP1 cf. untreated cells ([2]; Table 12A) | MCP1 [2, 8] [pg/mL] | MBIC50 P. aeruginosa (P. aeruginosa biofilm; [9]) [µg/mL] | MBIC50 S. aureus (S. aureus biofilm) [µg/mL] | IL1β Production [1, 5] [pg/mL]
CC[C@H](C)[C@H](NC(=O)[C@H](CCCNC(=N)N)NC(=O)[C@H](CC(C)C)NC(=O)[C@H](CCC(N)=O)NC(=O)[C@@H](N)C(C)C)C(=O)N[C@@H](CCCNC(=N)N)C(=O)N[C@H](C(=O)N[C@@H](C)C(=O)N[C@H](C(=O)N[C@H](C(=O)N[C@@H](CCCNC(=N)N)C(=O)N[C@@H](C)C(N)=O)[C@@H](C)CC)C(C)C)C(C)C [HH2] (H-VQLRIRVAVIRA-NH2; N-terminus assumed) | >80 | 1.00 | 1307 | 0.53 | 469* pg/ml | 3.6 | 450 | 43 | 896 |  |  | 
CC[C@H](C)[C@H](NC(=O)[C@H](CCCNC(=N)N)NC(=O)[C@H](Cc1c[nH]c2ccccc12)NC(=O)[C@@H](NC(=O)[C@@H](NC(=O)[C@H](CC(C)C)NC(=O)[C@H](Cc1c[nH]c2ccccc12)NC(=O)[C@H](CCCNC(=N)N)NC(=O)[C@H](CCC(N)=O)NC(=O)[C@@H](N)C(C)C)[C@@H](C)CC)C(C)C)C(=O)N[C@@H](CCCNC(=N)N)C(=O)N[C@@H](CCCCN)C(N)=O [Peptide 1002] (H-VQRWLIVWRIRK-NH2; N-terminus assumed) | 5 | 0.05 | 127 | 0.13 | 111* pg/ml | 3.5 | 603.2 | 576 | 11994 |  |  | 
CC[C@H](C)[C@H](NC(=O)[C@H](CCCNC(=N)N)NC(=O)[C@@H](NC(=O)[C@H](CCCCN)NC(=O)[C@@H](NC(=O)[C@@H](NC(=O)[C@H](CC(C)C)NC(=O)[C@H](CCCNC(=N)N)NC(=O)[C@@H](N)C(C)C)[C@@H](C)CC)C(C)C)C(C)C)C(=O)N[C@@H](Cc1c[nH]c2ccccc12)C(=O)N[C@@H](CCCNC(=N)N)C(=O)N[C@@H](CCCNC(=N)N)C(N)=O [Peptide 2001] (H-VRLIVKVRIWRR-NH2; N-terminus assumed) |  |  |  | 0.08 |  |  |  | 765 | 16300 | 2.5 | 10 | 76
CC[C@H](C)[C@H](NC(=O)[C@H](CCCNC(=N)N)NC(=O)[C@@H](NC(=O)[C@H](C)NC(=O)[C@@H](NC(=O)[C@@H](NC(=O)[C@H](CC(C)C)NC(=O)[C@H](CCCNC(=N)N)NC(=O)[C@@H](N)C(C)C)[C@@H](C)CC)C(C)C)C(C)C)C(=O)N[C@@H](CCCNC(=N)N)C(=O)N[C@@H](CCCNC(=N)N)C(=O)N[C@@H](CCCNC(=N)N)C(N)=O [Peptide 2002] (H-VRLIVAVRIRRR-NH2; N-terminus assumed) |  |  |  | 0.30 |  |  |  | 152 | 3215 | 2.5 | 20 | 293
CC[C@H](C)[C@H](NC(=O)[C@H](CCCNC(=N)N)NC(=O)[C@@H](NC(=O)[C@H](CCCCN)NC(=O)[C@@H](NC(=O)[C@@H](NC(=O)[C@H](CC(C)C)NC(=O)[C@H](CCCNC(=N)N)NC(=O)[C@@H](N)C(C)C)[C@@H](C)CC)C(C)C)C(C)C)C(=O)N[C@@H](CCCNC(=N)N)C(=O)N[C@@H](CCCNC(=N)N)C(=O)N[C@@H](CCCNC(=N)N)C(N)=O [Peptide 2003] (H-VRLIVKVRIRRR-NH2; N-terminus assumed) |  |  |  | 1.07 |  |  |  | 509 | 10848 | 2.5 | 20 | 1051
CC[C@H](C)[C@H](NC(=O)[C@H](CCCNC(=N)N)NC(=O)[C@@H](NC(=O)[C@H](CCCCN)NC(=O)[C@@H](NC(=O)[C@@H](NC(=O)[C@@H](NC(=O)[C@H](CCCNC(=N)N)NC(=O)[C@@H](N)C(C)C)C(C)C)[C@@H](C)CC)C(C)C)C(C)C)C(=O)N[C@@H](CCCNC(=N)N)C(=O)N[C@@H](CCCNC(=N)N)C(=O)N[C@@H](CCCNC(=N)N)C(N)=O [Peptide 2004] (H-VRVIVKVRIRRR-NH2; N-terminus assumed) |  |  |  | 0.56 |  |  |  | 340 | 7226 | 2.5 | 20 | 549
CC[C@H](C)[C@H](NC(=O)[C@H](CCCNC(=N)N)NC(=O)[C@H](Cc1c[nH]c2ccccc12)NC(=O)[C@H](CCCNC(=N)N)NC(=O)[C@@H](NC(=O)[C@H](CC(C)C)NC(=O)[C@H](CC(C)C)NC(=O)[C@H](CCCNC(=N)N)NC(=O)[C@H](Cc1c[nH]c2ccccc12)NC(=O)[C@@H](N)CCCCN)[C@@H](C)CC)C(=O)N[C@@H](CCC(N)=O)C(=O)N[C@@H](CCCCN)C(N)=O [Peptide 2009] (H-KWRLLIRWRIQK-NH2; N-terminus assumed) | 2.5 |  |  | 0.08 | 74* pg/ml |  |  | 586 | 12475 |  |  | 
CC[C@H](C)[C@H](NC(=O)[C@H](CCCNC(=N)N)NC(=O)[C@H](Cc1c[nH]c2ccccc12)NC(=O)[C@H](CCCNC(=N)N)NC(=O)[C@@H](NC(=O)[C@H](CC(C)C)NC(=O)[C@H](Cc1c[nH]c2ccccc12)NC(=O)[C@H](CCCNC(=N)N)NC(=O)[C@H](CCC(N)=O)NC(=O)[C@@H](N)CCCCN)[C@@H](C)CC)C(=O)N[C@@H](CCCNC(=N)N)C(=O)N[C@@H](CCCCN)C(N)=O [Peptide 2010] (H-KQRWLIRWRIRK-NH2; N-terminus assumed) | 2.5 |  |  | 0.42 | 377* pg/ml |  |  | 266 | 5649 |  |  | 
CC[C@H](C)[C@H](NC(=O)[C@H](CCCNC(=N)N)NC(=O)[C@H](CC(C)C)NC(=O)[C@H](CCC(N)=O)NC(=O)[C@@H](N)C(C)C)C(=O)N[C@@H](CCCNC(=N)N)C(=O)N[C@H](C(=O)N[C@@H](CCCCN)C(=O)N[C@H](C(=O)N[C@H](C(=O)N[C@@H](CCCNC(=N)N)C(=O)N[C@@H](CCCCN)C(N)=O)[C@@H](C)CC)C(C)C)C(C)C [Peptide 2011] (H-VQLRIRVKVIRK-NH2; N-terminus assumed) | 10 |  |  | 0.62 | 550* pg/ml |  |  | 38 | 796 |  |  | 
CC[C@H](C)[C@H](NC(=O)[C@H](CCCNC(=N)N)NC(=O)[C@H](CC(C)C)NC(=O)[C@H](CCC(N)=O)NC(=O)[C@@H](N)Cc1c[nH]c2ccccc12)C(=O)N[C@@H](CCCNC(=N)N)C(=O)N[C@H](C(=O)N[C@@H](CCCCN)C(=O)N[C@H](C(=O)N[C@H](C(=O)N[C@@H](CCCNC(=N)N)C(=O)N[C@@H](CCCCN)C(N)=O)[C@@H](C)CC)C(C)C)C(C)C [Peptide 2012] (H-WQLRIRVKVIRK-NH2; N-terminus assumed) | 20 |  |  | 0.43 | 381* pg/ml |  |  | 227 | 4824 |  |  | 
